The values that follow come from ChEMBL document CHEMBL5244245, “Medicinal chemistry insights into novel CDC25 inhibitors” (Eur J Med Chem, 2020).

Experiment [1] can be described thus: Antitumor activity against human RPMI cells. Format: functional, cell-based.
Experiment [2] addresses T1, M-phase inducer phosphatase 1 (Homo sapiens, UniProt P30304).
T1 sequence (P30304 whole entry): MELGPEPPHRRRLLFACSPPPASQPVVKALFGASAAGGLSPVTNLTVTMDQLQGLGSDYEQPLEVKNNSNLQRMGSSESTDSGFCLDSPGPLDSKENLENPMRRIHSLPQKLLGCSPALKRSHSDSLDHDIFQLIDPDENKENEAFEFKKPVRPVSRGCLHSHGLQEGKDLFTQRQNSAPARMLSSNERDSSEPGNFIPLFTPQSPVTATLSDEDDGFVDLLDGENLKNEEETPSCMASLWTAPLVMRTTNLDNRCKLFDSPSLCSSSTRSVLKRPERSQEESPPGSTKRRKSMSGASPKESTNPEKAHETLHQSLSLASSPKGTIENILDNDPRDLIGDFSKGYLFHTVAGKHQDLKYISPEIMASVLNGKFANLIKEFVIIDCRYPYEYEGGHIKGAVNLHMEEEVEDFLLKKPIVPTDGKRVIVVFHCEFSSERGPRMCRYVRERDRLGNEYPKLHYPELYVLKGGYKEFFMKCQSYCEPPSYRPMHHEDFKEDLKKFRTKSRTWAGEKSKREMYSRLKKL
Briefly: Inhibition of human CDC25A.

Experiment [3] deals with T2, M-phase inducer phosphatase 3 (Homo sapiens, UniProt P30307).
T2 sequence (P30307 whole entry): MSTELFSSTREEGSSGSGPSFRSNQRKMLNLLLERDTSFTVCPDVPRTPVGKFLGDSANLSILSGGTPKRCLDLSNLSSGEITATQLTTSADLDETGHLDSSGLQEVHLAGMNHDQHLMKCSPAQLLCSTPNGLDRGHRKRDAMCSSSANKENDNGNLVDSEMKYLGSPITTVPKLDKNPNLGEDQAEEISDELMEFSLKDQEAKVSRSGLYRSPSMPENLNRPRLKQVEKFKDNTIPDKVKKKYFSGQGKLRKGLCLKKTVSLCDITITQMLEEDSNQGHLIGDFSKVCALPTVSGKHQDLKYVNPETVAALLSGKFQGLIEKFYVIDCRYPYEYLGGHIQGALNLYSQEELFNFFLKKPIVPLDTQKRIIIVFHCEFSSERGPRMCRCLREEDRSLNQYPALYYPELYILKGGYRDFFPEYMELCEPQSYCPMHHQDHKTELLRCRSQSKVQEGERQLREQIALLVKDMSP
Briefly: Inhibition of human CDC25C.

Experiment [4] addresses T3, M-phase inducer phosphatase 2 (Homo sapiens, UniProt P30305).
T3 sequence (P30305 whole entry): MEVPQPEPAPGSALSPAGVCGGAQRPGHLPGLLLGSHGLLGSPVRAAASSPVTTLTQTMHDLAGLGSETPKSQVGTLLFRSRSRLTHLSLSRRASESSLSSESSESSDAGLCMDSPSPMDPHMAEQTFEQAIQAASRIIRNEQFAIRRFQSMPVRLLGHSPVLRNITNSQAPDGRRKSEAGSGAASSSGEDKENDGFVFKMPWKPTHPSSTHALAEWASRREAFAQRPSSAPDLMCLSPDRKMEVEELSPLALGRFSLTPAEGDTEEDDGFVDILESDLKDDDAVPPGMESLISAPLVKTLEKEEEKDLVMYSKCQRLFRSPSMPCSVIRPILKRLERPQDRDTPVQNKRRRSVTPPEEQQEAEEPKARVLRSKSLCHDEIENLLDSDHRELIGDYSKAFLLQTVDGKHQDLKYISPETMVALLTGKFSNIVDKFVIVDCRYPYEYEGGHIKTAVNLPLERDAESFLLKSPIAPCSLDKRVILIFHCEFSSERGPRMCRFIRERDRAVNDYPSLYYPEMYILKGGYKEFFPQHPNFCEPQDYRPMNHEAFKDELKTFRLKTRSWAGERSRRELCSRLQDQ
Put plainly: Inhibition of human CDC25B.

The target in experiment [5] is T3, M-phase inducer phosphatase 2. Briefly: Inhibition of CDC25B (unknown origin).
Experiment [6] concerns the target T2, M-phase inducer phosphatase 3. Put plainly: Inhibition of CDC25C (unknown origin).
The target in experiment [7] is T1, M-phase inducer phosphatase 1. Put plainly: Inhibition of CDC25A (unknown origin).
The subject of another experiment is HeLa. Put plainly: Cytotoxicity against human HeLa cells assessed as inhibition of cell growth incubated for 48 hrs by MTT assay. Format: functional, cell-based. (Formazan colour is commonly taken as a measure of viable cells.)
Experiment [8] has as its target T1, M-phase inducer phosphatase 1. Briefly: Inhibition of CDC25A (unknown origin) using fluorescein diphosphate as substrate.
Experiment [9] addresses T2, M-phase inducer phosphatase 3. Briefly: Inhibition of recombinant N-terminal GST-tagged CDC25C (unknown origin) expressed in Escherichia coli BL21 (DE3) cells incubated for 2 hrs.
Experiment [10] deals with T3, M-phase inducer phosphatase 2. Briefly: Inhibition of recombinant N-terminal GST-tagged CDC25B (unknown origin) expressed in Escherichia coli BL21 (DE3) cells incubated for 2 hrs.
Experiment [11] addresses T1, M-phase inducer phosphatase 1. Put plainly: Inhibition of recombinant N-terminal GST-tagged CDC25A (unknown origin) expressed in Escherichia coli BL21 (DE3) cells incubated for 2 hrs.
For another experiment, the system named is HCT-116. Briefly: Antitumor activity against human HCT-116 cells. Type of experiment: functional, cell-based.
In experiment [12] the target is T3, M-phase inducer phosphatase 2. Put plainly: Inhibition of human recombinant CDC25B.
Experiment [13] has as its target T2, M-phase inducer phosphatase 3. Put plainly: Inhibition of recombinant CDC25C (unknown origin).
For experiment [14], the target named is T1, M-phase inducer phosphatase 1. Briefly: Inhibition of recombinant CDC25A (unknown origin).
For experiment [15], the target named is T3, M-phase inducer phosphatase 2. Briefly: Inhibition of recombinant CDC25B (unknown origin).
Experiment [16] addresses T1, M-phase inducer phosphatase 1. Briefly: Inhibition of N-terminal FLAG-tagged wild type CDC25A (331 to 524 residues) (unknown origin) expressed in Escherichia coli BL21 (DE3) cells incubated for 45 mins.
Experiment [17] has as its target T3, M-phase inducer phosphatase 2. Briefly: Inhibition of recombinant N-terminal GST-tagged CDC25B (372 to 551 residues) (unknown origin) expressed in Escherichia coli BL21 (DE3) cells incubated for 45 mins.

The IC50 is the midpoint of a concentration-inhibition curve. Take `CCNC1=C(F)C(=O)c2c(F)c(F)c(F)c(F)c2C1=O`: inhibition in [1] was half-maximal at 0.7 µM (IC50).

As for `O=C1C(F)=C(Nc2ccccc2)C(=O)c2c(F)c(F)c(F)c(F)c21`, the IC50 in [1] worked out at 0.8 µM. As for `O=C(O)c1ccc(NC2=C(Cl)C(=O)c3ccccc3C2=O)cc1`, the IC50 in [2] amounted to 3.19 µM; in [3], 5.41 µM; in [4], 11.1 µM. For `O=C(O)C1CCCCC1c1c2ccc(=O)cc-2oc2cc(O)ccc12` (stereo not drawn), the IC50 in experiment [5] turned out to be 0.78 µM; in experiment [6], 3.5 µM; in [7] it was 0.65 µM. As to `CCCc1cc(O)nc(SCC(=O)NCCSCc2ccco2)n1`, the IC50 in the experiment with HeLa came to 66.3 µM; in experiment [8], 7.9 µM. Consider `COc1ccc2c(CSC3=CC(=O)c4ccccc4C3=O)cc(=O)oc2c1`, for which the figures for the IC50 in [9], in experiment [10] and in experiment [11] were 0.9 µM, 9.1 µM and 4.3 µM, respectively. On to `CCSC1=C(C)C(=O)c2ccccc2C1=O`, for which the IC50 in experiment [5] stood at 4.7 µM; in experiment [7] it was 5.5 µM.

`CC(C)=CCOc1ccc(C(=O)/C=C/c2ccc(Cl)cc2)c(O)c1` showed an IC50 in the experiment on HCT-116 of 0.89 µM.

On to `CC(C)n1c2c(=O)c(-c3ccc(F)cc3)cc(=O)c2c2c(=O)c3ccccc3c21`, for which the results for the IC50 in experiment [6] and in [7] were 2.55 µM and 2.73 µM, respectively. The like results for `Cc1cc(=O)c2c(c1=O)c1c(=O)c3ccccc3c1n2C(C)C` were, in that order, 2.51 µM and 2 µM. In the case of `CCOC(=O)c1ccc(N2C(=O)/C(=C\c3cccc(C)c3)SC2c2ccccc2)cc1` (stereo not drawn), inhibition in experiment [4] was half-maximal at 39 µM (IC50). Turning to `CCOC(=O)C1=C(C)N=c2s/c(=C\c3cc(Br)c(O)c(Br)c3)c(=O)n2C1c1ccc2c(c1)OCO2` (stereo not drawn), in experiment [12], the IC50 came to 4.5 µM. As for `CN(C)CCNC1=CC(=O)c2nc(-c3cc(F)ccc3F)oc2C1=O`, the IC50 in experiment [13] was 0.023 µM; in experiment [14] it was 0.023 µM; in experiment [15] it was 0.053 µM. For `C[C@@H](C[C@@H](O)C(C)(C)C=O)[C@@H]1CC[C@]2(C)C3=CC[C@H]4C(C)(C)C(=O)CC[C@]4(C)[C@H]3CC[C@@]12C`, the IC50 in experiment [5] amounted to 2.1 µM.

Take `N#Cc1c(F)cc(O)cc1SCCS(=O)(=O)O`: the IC50 in experiment [16] is 2200 µM; in experiment [17] it was 1000 µM.

`CCOC(=O)C1=C(C)N=c2s/c(=C\c3ccc(-n4cc(CNC(=O)Nc5sccc5C(=O)O)nn4)cc3)c(=O)n2C1c1ccccc1` (stereo not drawn) came in with an IC50 in experiment [5] of 3 µM. `CC(C)n1c2c(=O)c(-c3ccco3)cc(=O)c2c2c(=O)c3ccccc3c21`: the IC50 in experiment [6] came out at 1.72 µM; in [7], 1.68 µM.

Take `CCCCOc1cc2c(c3c(=O)oc4ccccc4c13)C(=O)C=CC2=O`: the 50% inhibitory concentration (IC50) in [5] amounted to 46.1 µM; in experiment [6] it was 9 µM; in experiment [7], 13.2 µM. For `CC(C)n1c2c(=O)c(-c3ccccc3)cc(=O)c2c2c(=O)c3ccccc3c21`, the figures for the IC50 in experiment [6] and in [7] were 2 µM and 2.01 µM, respectively. As for `Cc1nc2c(s1)C(=O)C=C(NCCN(C)C)C2=O`, the IC50 in [13] was 0.023 µM; in experiment [14], 0.023 µM; in experiment [15], 0.053 µM.

As for `COC1=CC(=O)C=C([S@@+]([O-])c2ccc(C)cc2)C1=O`, the concentration for half-maximal inhibition (IC50) in experiment [2] turned out to be 2.6 µM; in experiment [3] it was 5.72 µM; in [4] it was 6.99 µM. Regarding `CCCCCCCCCCCC/C=C/[C@]12C(=O)O[C@]3(C)O[C@]4(C)OC(=O)C(=C[C@H]1CCCCCCCCCCCC)C4C32` (single isomer, unassigned), in experiment [5], half-maximal inhibition (IC50) was put at 6.44 µM.
